Reference: patent US20120220603A1, “SUBSTITUTED HETEROCYCLIC DERIVATIVES FOR THE TREATMENT OF PAIN AND EPILEPSY” (ZALICUS PHARMACEUTICALS LTD., priority 2009, published 2012)

How the values were obtained:
[1] = target: T1, human Nav1.5 channel (Homo sapiens, UniProt Q14524); test: NaV1.5 sodium channel screening assay, PatchXpress automated electrophysiology, cardiac action potential waveform 1 Hz; assay type: cell-based; details: cardiac action potential waveform at 1 Hz; HEK cells; read-out: HNAv 1.5 Cardiac AP 1 Hz IC50
T1 construct: expressed in transfected cells; host or cells: HEK cells
T1 sequence (Q14524 whole entry): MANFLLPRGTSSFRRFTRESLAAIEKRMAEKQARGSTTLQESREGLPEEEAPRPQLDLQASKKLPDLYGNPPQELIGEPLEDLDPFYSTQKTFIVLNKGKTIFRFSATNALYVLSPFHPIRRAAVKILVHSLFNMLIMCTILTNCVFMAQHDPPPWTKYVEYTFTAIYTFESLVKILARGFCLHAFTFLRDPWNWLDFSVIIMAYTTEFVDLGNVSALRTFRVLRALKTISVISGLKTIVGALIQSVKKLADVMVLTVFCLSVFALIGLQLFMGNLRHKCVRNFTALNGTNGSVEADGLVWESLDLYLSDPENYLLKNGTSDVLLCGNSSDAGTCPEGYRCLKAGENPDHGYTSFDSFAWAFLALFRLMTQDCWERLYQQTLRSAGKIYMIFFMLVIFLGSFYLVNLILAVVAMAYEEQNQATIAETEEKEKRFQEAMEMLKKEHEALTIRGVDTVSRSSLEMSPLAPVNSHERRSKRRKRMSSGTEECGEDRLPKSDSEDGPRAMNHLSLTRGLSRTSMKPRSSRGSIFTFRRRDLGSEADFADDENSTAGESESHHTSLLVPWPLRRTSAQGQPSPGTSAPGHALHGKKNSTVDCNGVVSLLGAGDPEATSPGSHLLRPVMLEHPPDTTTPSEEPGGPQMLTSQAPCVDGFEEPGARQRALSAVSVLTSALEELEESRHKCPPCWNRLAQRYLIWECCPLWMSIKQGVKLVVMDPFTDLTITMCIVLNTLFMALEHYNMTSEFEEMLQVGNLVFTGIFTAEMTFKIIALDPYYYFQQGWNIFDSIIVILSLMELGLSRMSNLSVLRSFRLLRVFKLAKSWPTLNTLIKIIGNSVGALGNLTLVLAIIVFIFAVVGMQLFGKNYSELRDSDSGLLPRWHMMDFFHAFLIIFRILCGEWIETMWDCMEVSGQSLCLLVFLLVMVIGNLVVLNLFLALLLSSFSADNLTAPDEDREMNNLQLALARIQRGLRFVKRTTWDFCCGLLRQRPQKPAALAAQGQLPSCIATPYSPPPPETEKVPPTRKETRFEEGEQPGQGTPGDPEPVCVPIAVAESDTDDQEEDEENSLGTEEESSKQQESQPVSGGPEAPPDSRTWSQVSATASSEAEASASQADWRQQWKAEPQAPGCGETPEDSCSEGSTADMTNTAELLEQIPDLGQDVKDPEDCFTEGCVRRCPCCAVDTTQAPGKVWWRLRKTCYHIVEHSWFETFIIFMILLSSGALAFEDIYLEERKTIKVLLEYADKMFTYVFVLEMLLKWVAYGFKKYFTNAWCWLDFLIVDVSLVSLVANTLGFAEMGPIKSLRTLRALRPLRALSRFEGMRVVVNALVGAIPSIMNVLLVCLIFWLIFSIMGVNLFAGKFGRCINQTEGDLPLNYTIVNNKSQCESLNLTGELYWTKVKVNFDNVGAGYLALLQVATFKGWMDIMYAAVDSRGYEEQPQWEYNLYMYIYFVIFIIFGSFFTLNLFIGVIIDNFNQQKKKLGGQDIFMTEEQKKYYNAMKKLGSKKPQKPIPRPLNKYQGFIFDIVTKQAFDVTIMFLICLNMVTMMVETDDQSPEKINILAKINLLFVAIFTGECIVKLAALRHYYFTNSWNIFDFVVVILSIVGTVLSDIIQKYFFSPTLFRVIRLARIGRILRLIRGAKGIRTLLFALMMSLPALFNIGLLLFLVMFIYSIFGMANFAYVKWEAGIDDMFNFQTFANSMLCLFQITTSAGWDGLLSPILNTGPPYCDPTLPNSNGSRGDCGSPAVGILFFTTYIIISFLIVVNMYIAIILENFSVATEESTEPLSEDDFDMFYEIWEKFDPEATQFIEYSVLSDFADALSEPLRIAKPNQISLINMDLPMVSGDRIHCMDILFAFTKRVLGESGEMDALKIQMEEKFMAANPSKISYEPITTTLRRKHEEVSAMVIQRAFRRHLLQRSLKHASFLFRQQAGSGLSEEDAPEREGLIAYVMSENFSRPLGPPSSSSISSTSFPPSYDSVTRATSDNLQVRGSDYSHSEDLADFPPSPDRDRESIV
Method: Inhibition of the TTX-resistant NaV1.5 sodium channel, a key cardiac ion channel, can have profound effects on the duration and amplitude of the cardiac action potential and can result in arrhythmias and other heart malfunctions. To assess the potential cardiac liability of compounds at an early stage in the drug discovery process, a NaV1.5 sodium channel screening assay is performed on Molecular Device's PatchXpress™ automated electrophysiology platform. Under voltage-calmp conditions, NaV1.5 currents were recorded from HEK cells expressing the human Nav1.5 channel in the absence and presence of increasing concentrations of the test compound to obtain an IC50 value. The external recording solution contained (in mM): 90 TEACl, 50 NaCl, 1.8 CaCl, 1 MgCl2, 10 HEPES, 10 glucose, adjusted to pH 7.4 with TEA-OH and to 300 mOsm with sucrose (if necessary), while the internal patch pipette solution contained (in mM): 129 CsF, 2 MgCl2, 11 EGTA, 10 HEPES, 3 Na2ATP adjusted to pH 7.2 with CsOH and to 290 mOsm with sucrose (if necessary). NaV1.5 channel currents were evoked using a cardiac action potential waveform at 1 Hz, digitized at 31.25 kHz and low-pass filtered at 12 kHz.

[2] = test system: Rat SNL tactile allodynia; test: L5/L6 spinal nerve ligation (SNL) Chung pain model, tactile allodynia (von Frey); assay type: in vivo
Excerpt: The Spinal Nerve Ligation is an animal model representing peripheral nerve injury generating a neuropathic pain syndrome. In this model experimental animals develop the clinical symptoms of tactile allodynia and hyperalgesia. L5/L6 Spinal nerve ligation (SNL) injury was induced using the procedure of Kim and Chung (Kim et al., Pain 50:355-363 (1992)) in male Sprague-Dawley rats (Harlan; Indianapolis, Ind.) weighing 200 to 250 grams.
Anaesthesia was induced with 2% isofluorane in O2 at 2 L/min and maintained with 0.5% isofluorane in O2. Rats were then shaved and aseptically prepared for surgeries. A 2 cm paraspinal incision was made at the level of L4-S2. L4/L5 was exposed by removing the transverse process above the nerves with a small rongeur. The L5 spinal nerve is the larger of the two visible nerves below the transverse process and lies closest to the spine. The L6 spinal nerve is located beneath the corner of the slope bone. A home-made glass Chung rod was used to hook L5 or L6 and a pre-made slip knot of 4.0 silk suture was placed on the tip of the rod just above the nerve and pulled underneath to allow for the tight ligation. The L5 and L6 spinal nerves were tightly ligated distal to the dorsal root ganglion. The incision was closed, and the animals were allowed to recover for 5 days.
Sham control rats underwent the same operation and handling as the experimental animals, but without SNL.
Prior to initiating drug delivery, baseline behavioural testing data is obtained. At selected times after infusion of the Test or Control Article behavioural data can then be collected again.
The assessment of tactile allodynia consisted of measuring the withdrawal threshold of the paw ipsilateral to the site of nerve injury in response to probing with a series of calibrated von Frey filaments (innocuous stimuli). Animals were acclimated to the suspended wire-mesh cages for 30 min before testing. Each von Frey filament was applied perpendicularly to the plantar surface of the ligated paw of rats for 5 sec. A positive response was indicated by a sharp withdrawal of the paw. For rats, the first testing filament is 4.31. Measurements were taken before and after administration of test articles. […] The protocol was repeated until three changes in behaviour were determined (“up and down” method) (Chaplan et al., J. Neurosci. Methods 53:55-63 (1994)). The 50% paw withdrawal threshold was determined as (10^[Xf+kδ])/10,000, where Xf=the value of the last von Frey filament employed, k=Dixon value for the positive/negative pattern, and S=the logarithmic difference between stimuli. The cut-off values for rats were no less than 0.2 g and no higher than 15 g (5.18 filament); for mice no less than 0.03 g and no higher than 2.34 g (4.56 filament). A significant drop of the paw withdrawal threshold compared to the pre-treatment baseline is considered tactile allodynia. […]

[3] = test system: mice on rotarod; test: Mouse rotarod assay (minimal muscular or neurological impairment); assay type: in vivo
Method: To assess a compound's undesirable side effects (toxicity), animals were monitored for overt signs of impaired neurological or muscular function. In mice, the rotarod procedure (Dunham and Miya, J. Am. Pharmacol. Assoc. 46:208-209 (1957)) is used to disclose minimal muscular or neurological impairment (MMI). When a mouse is placed on a rod that rotates at a speed of 6 rpm, the animal can maintain its equilibrium for long periods of time. The animal is considered toxic if it falls off this rotating rod three times during a 1-min period.

[4] = Rat Early Pharmacokinetic (EPK) study; assay type: in vivo; details: PO, 3 mg/kg, formulation PG (propylene glycol); for Tmax: male, Sprague-Dawley, blood
Method: Male Sprague-Dawley rats were dosed via oral (PO) gavage in the detailed formulation. Blood samples were collected from the animals at 6 timepoints out to 4 hours post-dose. Pharmacokinetic analysis was performed on the LC-MS/MS measured concentrations for each timepoint of each compound.

Compound | IC50 [1] | Rat SNL Tactile Allodynia (% Antiallodynia) ([2]; 1 hour) | Rat SNL Tactile Allodynia (% Antiallodynia) ([2]; 2 hours) | Rat SNL Tactile Allodynia (% Antiallodynia) ([2]; 4 hours) | % Impaired ([3]; 0.25 hr) | % Impaired ([3]; 0.5 hr) | % Impaired ([3]; 1 hr) | % Impaired ([3]; 2 hr) | % Impaired ([3]; 4 hr) | Dose Normalized AUC [4] | Dose Normalized Cmax [4] | Tmax [4] | Anti-allodynia in rat SNL tactile allodynia (in words) ([2]; at 60 minutes compared to baseline and post-SNL)
O=C(CN1CCNCC1=O)Nc1cc(C(F)(F)F)cc(C(F)(F)F)c1 [Compound 1, N-(3,5-bis(trifluoromethyl)phenyl)-2-(2-oxopiperazin-1-yl)acetamide] | 100 µM | 52% | 55% | 37% | 0% | 0% | 0% | 0% | 0% | 1,118 nM*h | 438 nM | 15 min | 
O=C1CN(CC(=O)Nc2cc(C(F)(F)F)cc(C(F)(F)F)c2)CCN1 [Compound 9, N-(3,5-bis(trifluoromethyl)phenyl)-2-(3-oxopiperazin-1-yl)acetamide] | 80 µM | 36% |  |  | 0% | 0% | 0% | 0% | 0% | 1,120 nM*h | 484 nM | 84 min | significant anti-allodynia
